Laboratory results: patent publication US12558342B2, “2-[2-({12,12-dimethyl-4-oxo-6-phenyl-3,11-dioxatricyclo[8.4.0.0,2,7]tetradeca-1,5,7,9-tetraen-8-yl}oxy)acetamido]benzamide and derivatives as inhibitor of clock:bmal1 interaction for the treatment of circadian rhythm diseases and disorders” (KOC UNIVERSITESI, priority 2019, dated 2026)

Key:
CLOCK = target: T1, CLOCK (Homo sapiens, UniProt O15516); assay: Cytosol-nuclear fractionation of U2OS cells, CLOCK; assay type: cell-based; settings: 20 μM, two days
T1 sequence (O15516 1-846): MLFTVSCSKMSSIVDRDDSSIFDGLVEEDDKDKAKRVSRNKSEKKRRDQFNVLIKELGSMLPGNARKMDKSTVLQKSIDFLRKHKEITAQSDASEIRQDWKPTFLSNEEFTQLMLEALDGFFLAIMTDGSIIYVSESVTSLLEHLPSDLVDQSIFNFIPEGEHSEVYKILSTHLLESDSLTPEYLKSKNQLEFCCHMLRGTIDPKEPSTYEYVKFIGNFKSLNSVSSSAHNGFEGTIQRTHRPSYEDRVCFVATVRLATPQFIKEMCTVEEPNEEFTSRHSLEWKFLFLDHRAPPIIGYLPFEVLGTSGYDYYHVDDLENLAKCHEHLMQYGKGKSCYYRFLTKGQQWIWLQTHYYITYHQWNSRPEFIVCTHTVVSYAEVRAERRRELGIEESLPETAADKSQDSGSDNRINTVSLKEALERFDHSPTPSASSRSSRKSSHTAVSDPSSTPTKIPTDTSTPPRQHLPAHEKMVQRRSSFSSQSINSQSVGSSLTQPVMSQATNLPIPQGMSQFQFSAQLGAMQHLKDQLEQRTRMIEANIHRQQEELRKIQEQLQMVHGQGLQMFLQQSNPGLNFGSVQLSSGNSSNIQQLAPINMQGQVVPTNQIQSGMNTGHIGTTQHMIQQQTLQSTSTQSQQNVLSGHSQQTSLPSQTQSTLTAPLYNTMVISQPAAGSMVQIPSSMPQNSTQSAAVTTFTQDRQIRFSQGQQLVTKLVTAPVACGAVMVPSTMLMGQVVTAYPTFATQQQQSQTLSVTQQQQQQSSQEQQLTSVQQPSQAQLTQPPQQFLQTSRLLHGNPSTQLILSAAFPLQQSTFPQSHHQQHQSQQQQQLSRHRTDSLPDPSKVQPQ
Description: U2 OS cells treated with 20 μM CLK8 and 0.5% DMSO were used for fractionation analysis. The 4×10^5 was suspended in 500 ul cytosolic lysis buffer (10 mM HEPES pH 7,9, 10 mM KCl, 0.1 mM EDTA, 0.05% NP40 with protease inhibitors) and incubated on ice for 10 minutes. The lysate was centrifuged for 3 minutes at 3000 rpm at 4° C. The resulting supernatant was centrifuged one more time and supernatant collected as cytosolic fraction. On the other hand, the resulting pellet from lysate centrifugation was suspended in nuclear lysis buffer (20 mM HEPES pH 7.9, 0.4 M NaCl, 1 mM EDTA, 10% glycerol with protease inhibitors) and sonicated 2 times 10 seconds with 60% power. After centrifuge at 15 000 g for 5 minutes at 4° C., supernatant was collected as nuclear fraction. Collected fractions were used for Western Blot analysis. Fractionation efficiency was checked with Western Blot by using tubulin (Sigma T9026) as cytosolic marker and Histone-H3 (abcam ab1791) as nuclear marker.

CLOCK:BMAL1 interaction = target: T2, CLOCK:BMAL1 interaction (Homo sapiens, UniProt O15516); assay: Mammalian two-hybrid assay; assay type: cell-based; settings: HEK293T
T2 construct: expressed in transfected cells; host or cells: HEK293T
T2 sequence (O15516 1-846): T1 sequence (O15516 1-846)
Description: The procedure was carried out according to Checkmate-Promega's protocol. Samples were examined in triplicate sets in a 96-well plate. HEK293T cells with the density of 4×10^4 cell/well were transfected with 50 ng of pG5-luc, 50 ng of pACT-mBmal1, 50 ng of pBind-hsClock plasmids and 0.5 ng of pRL-TK for normalization. Following the transfection, the cells were treated with different concentrations of small molecules. Control cells were treated with 0.5% vehicle (DMSO).
Ultimately, luminescence was measured using Dual-Luciferase Reporter Assay System (Promega) with Fluoroskan Ascent FL plate reader.

## CC1(C)CCc2c(cc(OCC(=O)Nc3ccccc3C(N)=O)c3c(-c4ccccc4)cc(=O)oc23)O1 [CLK8, 2-[2-({12,12-dimethyl-4-oxo-6-phenyl-3,11-dioxatricyclo [8.4.0.0,2,7]tetradeca-1,5,7,9-tetraen-8-yl}oxy)acetamido] benzamide]
CLOCK
  level of CLOCK in the nucleus: reduced
CLOCK:BMAL1 interaction
  interaction between CLOCK and BMAL1 (two-hybrid): reduces the interaction between CLOCK and BMAL1
